The supplement of paper PMC10307832

Experiments:
Experiment in all cases: relative viability (nuclei count vs DMSO), 5 days (fraction); higher = more cells survive
LCLC-97TM1 = test system: LCLC-97TM1
How it was run: (§1)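 Nuclei were stained with Hoechst during a one-step fixation (final 0.05% Triton X-100, 1% formaldehyde, 1 ug/ml Hoechst) carried out 5 days after dosing, then counted on 4× images. The cells, lung cancer lines in 1536-well plates, had been dosed by pin tool the day after seeding with one drug alone or a fixed anchor-drug dose plus five library-drug doses (not always all listed) in √10 steps. Relative viability is the nuclei count in treated wells divided by that in vehicle wells, and each value is the median of duplicate plates.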

NCI-H460 = test system: NCI-H460
How it was run: as §1

NCI-H520 = test system: NCI-H520
How it was run: as §1

PC-3 [JPC-3] = test system: PC-3 [JPC-3]
How it was run: as §1

NCI-H322M = test system: NCI-H322M
How it was run: as §1

NCI-H838 = test system: NCI-H838
How it was run: as §1

NCI-H1915 = test system: NCI-H1915
How it was run: as §1

NCI-H1792 = test system: NCI-H1792
How it was run: as §1

EKVX = test system: EKVX
How it was run: as §1

NCI-H1437 = test system: NCI-H1437
How it was run: as §1

NCI-H1666 = test system: NCI-H1666
How it was run: as §1

SK-LU-1 = test system: SK-LU-1
How it was run: as §1

NCI-H1975 = test system: NCI-H1975
How it was run: as §1

NCI-H1650 = test system: NCI-H1650
How it was run: as §1

NCI-H647 = test system: NCI-H647
How it was run: as §1

NCI-H727 = test system: NCI-H727
How it was run: as §1

NCI-H441 = test system: NCI-H441
How it was run: as §1

NCI-H23 = test system: NCI-H23
How it was run: as §1

NCI-H661 = test system: NCI-H661
How it was run: as §1

NCI-H596 = test system: NCI-H596
How it was run: as §1

Q: Which relative viability (LCLC-97TM1; first compound 0.002 µM) does the source give for CCNC(=O)c1noc(-c2cc(C(C)C)c(O)cc2O)c1-c1ccc(CN2CCOCC2)cc1 [Luminespib] + CC(C)C[C@H](NC(=O)[C@H](Cc1ccccc1)NC(=O)c1cnccn1)B(O)O [Bortezomib] (partner 0.002 µM) here?
A: 0.876

Q: What about the relative viability (LCLC-97TM1; first compound 0.006325 µM) of the same compound?
A: 0.635

Q: And the relative viability (LCLC-97TM1; first compound 0.02 µM)?
A: 0.638

Q: And the relative viability (LCLC-97TM1; first compound 0.06325 µM)?
A: 0.0526

Q: What about the relative viability (LCLC-97TM1; first compound 0.2 µM) of the same compound?
A: 0.0579

Q: And the relative viability (NCI-H460; first compound 0.002 µM)?
A: 1.09

Q: And the relative viability (NCI-H460; first compound 0.006325 µM)?
A: 1.14

Q: And the relative viability (NCI-H460; first compound 0.02 µM)?
A: 0.0229

Q: What about the relative viability (NCI-H460; first compound 0.06325 µM) of the same compound?
A: 0.011

Q: What about the relative viability (NCI-H460; first compound 0.2 µM) of the same compound?
A: 0.0138

Q: And the relative viability (NCI-H520; first compound 0.002 µM)?
A: 0.556

Q: What about the relative viability (NCI-H520; first compound 0.006325 µM) of the same compound?
A: 0.51

Q: What about the relative viability (NCI-H520; first compound 0.02 µM) of the same compound?
A: 0.41

Q: What about the relative viability (NCI-H520; first compound 0.06325 µM) of the same compound?
A: 0.103

Q: What about the relative viability (NCI-H520; first compound 0.2 µM) of the same compound?
A: 0.109

Q: And the relative viability (PC-3 [JPC-3]; first compound 0.002 µM)?
A: 0.865

Q: What about the relative viability (PC-3 [JPC-3]; first compound 0.006325 µM) of the same compound?
A: 0.812

Q: And the relative viability (PC-3 [JPC-3]; first compound 0.02 µM)?
A: 0.977

Q: What about the relative viability (PC-3 [JPC-3]; first compound 0.06325 µM) of the same compound?
A: 0.942

Q: What about the relative viability (PC-3 [JPC-3]; first compound 0.2 µM) of the same compound?
A: 0.503

Q: What about the relative viability (NCI-H322M; first compound 0.002 µM) of the same compound?
A: 1.21

Q: And the relative viability (NCI-H322M; first compound 0.006325 µM)?
A: 1.27

Q: What about the relative viability (NCI-H322M; first compound 0.02 µM) of the same compound?
A: 1.05

Q: What about the relative viability (NCI-H322M; first compound 0.06325 µM) of the same compound?
A: 1.32

Q: What about the relative viability (NCI-H322M; first compound 0.2 µM) of the same compound?
A: 0.814

Q: And the relative viability (NCI-H838; first compound 0.002 µM)?
A: 0.877

Q: What about the relative viability (NCI-H838; first compound 0.006325 µM) of the same compound?
A: 0.723

Q: What about the relative viability (NCI-H838; first compound 0.02 µM) of the same compound?
A: 0.389

Q: What about the relative viability (NCI-H838; first compound 0.06325 µM) of the same compound?
A: 0.0924

Q: What about the relative viability (NCI-H838; first compound 0.2 µM) of the same compound?
A: 0.0934

Q: And the relative viability (NCI-H1915; first compound 0.002 µM)?
A: 0.976

Q: What about the relative viability (NCI-H1915; first compound 0.006325 µM) of the same compound?
A: 0.995

Q: What about the relative viability (NCI-H1915; first compound 0.02 µM) of the same compound?
A: 1.02

Q: What about the relative viability (NCI-H1915; first compound 0.06325 µM) of the same compound?
A: 0.942

Q: What about the relative viability (NCI-H1915; first compound 0.2 µM) of the same compound?
A: 0.442

Q: And the relative viability (NCI-H1792; first compound 0.002 µM)?
A: 0.93

Q: And the relative viability (NCI-H1792; first compound 0.006325 µM)?
A: 0.888

Q: And the relative viability (NCI-H1792; first compound 0.02 µM)?
A: 0.633

Q: And the relative viability (NCI-H1792; first compound 0.06325 µM)?
A: 0.478

Q: What about the relative viability (NCI-H1792; first compound 0.2 µM) of the same compound?
A: 0.36

Q: And the relative viability (EKVX; first compound 0.002 µM)?
A: 0.998

Q: And the relative viability (EKVX; first compound 0.006325 µM)?
A: 1.03

Q: And the relative viability (EKVX; first compound 0.02 µM)?
A: 0.852

Q: And the relative viability (EKVX; first compound 0.06325 µM)?
A: 0.824

Q: And the relative viability (EKVX; first compound 0.2 µM)?
A: 0.0943

Q: What about the relative viability (NCI-H1437; first compound 0.002 µM) of the same compound?
A: 0.511

Q: What about the relative viability (NCI-H1437; first compound 0.006325 µM) of the same compound?
A: 0.38

Q: What about the relative viability (NCI-H1437; first compound 0.02 µM) of the same compound?
A: 0.431

Q: And the relative viability (NCI-H1437; first compound 0.06325 µM)?
A: 0.247

Q: What about the relative viability (NCI-H1437; first compound 0.2 µM) of the same compound?
A: 0.0895

Q: What about the relative viability (NCI-H1666; first compound 0.002 µM) of the same compound?
A: 0.871

Q: And the relative viability (NCI-H1666; first compound 0.006325 µM)?
A: 0.86

Q: And the relative viability (NCI-H1666; first compound 0.02 µM)?
A: 0.74

Q: And the relative viability (NCI-H1666; first compound 0.06325 µM)?
A: 0.725

Q: And the relative viability (NCI-H1666; first compound 0.2 µM)?
A: 0.74

Q: And the relative viability (SK-LU-1; first compound 0.002 µM)?
A: 1.19

Q: And the relative viability (SK-LU-1; first compound 0.006325 µM)?
A: 1.02

Q: And the relative viability (SK-LU-1; first compound 0.02 µM)?
A: 0.716

Q: What about the relative viability (SK-LU-1; first compound 0.06325 µM) of the same compound?
A: 0.199

Q: What about the relative viability (SK-LU-1; first compound 0.2 µM) of the same compound?
A: 0.203

Q: And the relative viability (NCI-H1975; first compound 0.002 µM)?
A: 0.444

Q: And the relative viability (NCI-H1975; first compound 0.006325 µM)?
A: 0.389

Q: And the relative viability (NCI-H1975; first compound 0.02 µM)?
A: 0.219

Q: What about the relative viability (NCI-H1975; first compound 0.06325 µM) of the same compound?
A: 0.149

Q: What about the relative viability (NCI-H1975; first compound 0.2 µM) of the same compound?
A: 0.119

Q: What about the relative viability (NCI-H1650; first compound 0.002 µM) of the same compound?
A: 0.209

Q: What about the relative viability (NCI-H1650; first compound 0.006325 µM) of the same compound?
A: 0.193

Q: And the relative viability (NCI-H1650; first compound 0.02 µM)?
A: 0.201

Q: And the relative viability (NCI-H1650; first compound 0.06325 µM)?
A: 0.222

Q: What about the relative viability (NCI-H1650; first compound 0.2 µM) of the same compound?
A: 0.194

Q: And the relative viability (NCI-H647; first compound 0.002 µM)?
A: 0.999

Q: And the relative viability (NCI-H647; first compound 0.006325 µM)?
A: 0.987

Q: What about the relative viability (NCI-H647; first compound 0.02 µM) of the same compound?
A: 0.29

Q: And the relative viability (NCI-H647; first compound 0.06325 µM)?
A: 0.0859

Q: And the relative viability (NCI-H647; first compound 0.2 µM)?
A: 0.0972

Q: What about the relative viability (NCI-H727; first compound 0.002 µM) of the same compound?
A: 0.802

Q: What about the relative viability (NCI-H727; first compound 0.006325 µM) of the same compound?
A: 0.782

Q: And the relative viability (NCI-H727; first compound 0.02 µM)?
A: 0.379

Q: And the relative viability (NCI-H727; first compound 0.06325 µM)?
A: 0.23

Q: And the relative viability (NCI-H727; first compound 0.2 µM)?
A: 0.215

Q: And the relative viability (NCI-H441; first compound 0.002 µM)?
A: 0.566

Q: And the relative viability (NCI-H441; first compound 0.006325 µM)?
A: 0.446

Q: What about the relative viability (NCI-H441; first compound 0.02 µM) of the same compound?
A: 0.236

Q: What about the relative viability (NCI-H441; first compound 0.06325 µM) of the same compound?
A: 0.127

Q: And the relative viability (NCI-H441; first compound 0.2 µM)?
A: 0.133

Q: And the relative viability (NCI-H23; first compound 0.002 µM)?
A: 1.23

Q: And the relative viability (NCI-H23; first compound 0.006325 µM)?
A: 1.05

Q: What about the relative viability (NCI-H23; first compound 0.02 µM) of the same compound?
A: 0.733

Q: And the relative viability (NCI-H23; first compound 0.06325 µM)?
A: 0.119

Q: What about the relative viability (NCI-H23; first compound 0.2 µM) of the same compound?
A: 0.117

Q: And the relative viability (NCI-H661; first compound 0.002 µM)?
A: 0.886

Q: What about the relative viability (NCI-H661; first compound 0.006325 µM) of the same compound?
A: 0.773

Q: What about the relative viability (NCI-H661; first compound 0.02 µM) of the same compound?
A: 0.685

Q: What about the relative viability (NCI-H661; first compound 0.06325 µM) of the same compound?
A: 0.527

Q: What about the relative viability (NCI-H661; first compound 0.2 µM) of the same compound?
A: 0.182

Q: What about the relative viability (NCI-H596; first compound 0.002 µM) of the same compound?
A: 1.03

Q: And the relative viability (NCI-H596; first compound 0.006325 µM)?
A: 0.915

Q: And the relative viability (NCI-H596; first compound 0.06325 µM)?
A: 1.07

Q: And the relative viability (NCI-H596; first compound 0.2 µM)?
A: 0.999
